Values joined by “and” are separate entries in the source; they are usually repeats but may differ in a detail not shown here. Equal entries are not always repeated. “Also recorded” adds a separate entry of the source.
Assays:
HUVEC = experiment: SRB cytotoxicity assay, HUVEC; assay type: cell-based; settings: Homo sapiens, non-malignant, endothelial, 72 h
Experimental: (§1) All cell lines described herein were purchased from ATCC. […] Control cultures were treated with ethanol alone.

SW-872 (Liposarcoma) = experiment: SRB cytotoxicity assay, SW-872 cells; assay type: cell-based; settings: Homo sapiens, SW872
Experimental: as §1

HOSE = experiment: SRB cytotoxicity assay, HOSE non-malignant control cells; settings: for Mpl Alone, Mpl (x/X) Inhibition: 5 μM MPL, x=events, X=experiments; for cytotoxicity of MPL alone: HOSE control cells, Table 6 footnote 3
Experimental: All cell lines described herein were purchased from ATCC. Cells were seeded in 96-well plates (2,000-3,000 cells/well) and culture overnight prior to treatment with MPL. Control cultures were treated with ethanol alone.
Cells were seeded in 96-well plates (2,000-3,000 cells/well), treated with the indicated compound(s) for 72 h, fixed, washed and stained with 100 μl of 0.4% (w/v) SRB dissolved in 1% acetic acid. Unbound dye was removed by five washes with 1% acetic acid before air-drying.
Corresponding cytotoxicity of the major metabolite MPL-SO2 has also been tested where indicated. […] HUVEC, human fetal astrocytes and HOSE cells are non-transformed, non-immortalized and non-malignant, freshly isolated/low passage number cell populations, from apparently healthy non-diseased tissue. These healthy cell populations were included in the experimental series as controls for non-specific toxicity. Both MPL and MPL-SO2 were suspended in ethanol and applied in final concentrations of 0.5 to 1% ethanol in the respective culture media.
In order to evaluate the effect of MPL on the in vitro efficacy of an established drug was evaluated using cell viability and cell proliferation assays. Cell viability was conducted according to standard Trypan Blue method. Cell proliferation was assessed using the sulforhodamine B (SRB) assay. For viability experiments, cells were seeded in 6 well plates, whereas for proliferation assays cells were grown in 96 well plates. Following over-night attachment, cells were treated with the intended drug at various concentrations either alone or in combination with monepantel (MPL) for 72 h. Parallel to this, cells treated with MPL alone were also deployed for comparative purposes. Following incubation for 72 h in a standard cell culture incubator, effect of mono and combined drug treatments on cell viability and/or cell proliferation was assessed through using Trypan Blue or SRB assays respectively.
For viability assay, at the end of treatment period, cells were washed with PBS, trypsinized and counted using Trypan blue and hemocytometer. For the SRB assay cells were fixed, washed and stained with 100 μl of 0.4% (w/v) SRB dissolved in 1% acetic acid. Unbound dye was removed by five washes with 1% acetic acid before air drying. […] Monepantel (gift by Novartis, Basel, Switzerland) was dissolved in 100% ethanol and then diluted with the cell culture media. Other agents employed in the study were purchased either from Sigma Australia or Sapphire Australia, prepared and preserved for cell culture use according to supplier instructions.
MPL (5 μM) and combination drugs were applied for 72 h unless indicated.

3T3 (fibroblast) = experiment: SRB cytotoxicity assay, 3T3 cells; assay type: cell-based; settings: immortalised, mesenchymal, 72 h
Experimental: as §1

Hep3B = experiment: SRB cytotoxicity assay, Hep3B cells; assay type: cell-based, human; settings: for cytotoxic effect of MPL alone: Hep3B cells
Experimental: as §1

[1] = dosage of 1000 mg of MPL per kg of body weight per 24 hours; mammals; cited from earlier work

`C[C@](C#N)(COc1cc(C#N)ccc1C(F)(F)F)NC(=O)c1ccc(SC(F)(F)F)cc1` [MPL, N-[(1S)-1-cyano-2-(5-cyano-2-trifluoromethyl-phenoxy)-1-methyl-ethyl]-4-trifluoromethylsulfanyl-benzamide] showed an IC50 (HUVEC) of 87 µM, an IC50 (SW-872 (Liposarcoma); SW-872 (Liposarcoma), malignant, mesenchymal, SRB, 72 h) of 14.7 µM and an EC50 (SW-872 (Liposarcoma); SW-872 cells) of 14.7 µM. The “Mpl Alone, Mpl (x/X) Inhibition” value (HOSE; HOSE (Ovarian) control, Table 6) was 2/9^3, the “Mpl Alone, Mpl (x/X) Inhibition” value (HOSE; HOSE (Ovarian), 72 h, Table 7) was “(0/4)” and the “cytotoxic effect of MPL alone” value (HOSE; HOSE cells, FIG. 22 Rows 2 (fluorouracil) and 5 (paclitaxel)) was “small but significant cytotoxic effect”. The “significant cytotoxic effect of MPL alone” value (HOSE; HOSE cells, MPL 2.5 μM, 1/1 experiments) was “did not induce a significant cytotoxic effect”, the “significant cytotoxic effect of MPL alone” value (HOSE; HOSE cells, MPL 5 μM, 3/3 experiments) was “did not induce a significant cytotoxic effect” and the “cytotoxicity of MPL alone” value (HOSE; flutamide experiment) was 3%. For the same compound, the “cytotoxicity of MPL alone” value (HOSE; oxaliplatin experiment) was 5%, the IC50 (HOSE; Homo sapiens, 72 h) was over 100 µM and the IC50 (3T3 (fibroblast)) was 12.4 ± 0.4 µM. The “Mpl Alone, Mpl (x/X) Inhibition” value (Hep3B; Hep3B Hepatoma, 5 μM MPL, 48 h, x=events, X=experiments) was 12/12, the “cytotoxic effect of MPL alone” value (Hep3B; MPL 2.5 μM, 48 h) was “does not display a cytotoxic effect; also recorded: does not exert a cytotoxic effect” and the “cytotoxic effect of MPL alone” value (Hep3B; MPL 5 μM, 48 h) was “significant cytotoxic effect and potent effect and 12 of 12”. The IC50 (Hep3B; Homo sapiens, Hep3B, malignant, hepatic, SRB, 72 h) was 15.8 µM and the clinical tolerance [1] was “well tolerated”.
